Where a name gives a salt, the structure may show the parent alone.
Columns and labels:
[1] = test system: M2 transmembrane domain (M2TMD); settings: cited from earlier work
[2] = test system: wt M2TMD21−49; parameters: species or system influenza A

## NC12CC3CC(CC(C3)C1)C2 [amantadine, amantadine hydrochloride]
[1]
  binding affinity of amantadine versus pH: Increased binding affinity of amantadine at neutral or basic pH, compared to acidic pH
  effect of amantadine on M2TMD tetramer: stabilizing effect of amantadine on M2TMD tetramer
[2]
  effect of longer incubation with amantadine on DEER data: did not produce any additional effect on the DEER data
[2]; pH 5.5
  effect of amantadine on DEER distances: do not change upon the addition of 2 mM amantadine
  effect of amantadine on DEER signal / modulation depth: almost negligible
